The assay relates to Ba/F3 LMNA-NTRK1-G595R cells. Description: Proliferation of Ba/F3 LMNA-NTRK1-G595R cells (CellTiter-Glo). Format: cell-based. Particulars: Mus musculus, BaF3; Table 5; 72 hours. The text has this:
Ba/F3 LMNA-NTRK1-G595R is a stable transgenic cell line constructed by KYinno Biotechnology Co., Ltd. on mouse primary B cell Ba/F3 wherein NTRK1 is highly expressed with a mutation of G at position 595 to R, and fused with LMNA to form LMNA-NTRK1. • [Test method]: Promega's CellTiter-Glo® Luminescent Cell Viability Assay kit was used to evaluate the inhibitory activity of the compounds on the proliferation of Ba/F3 LMNA-NTRK1-G595R cells. • [Instrument]: Spectramax M3 multifunctional microplate reader from Molecular Devices. • [Test materials]: Ba/F3 LMNA-NTRK1-G595R cell line (constructed by KYinno Biotechnology Co., Ltd. (Beijing)), 96-well transparent flat-bottomed black-walled cell culture plate (Corning, cat #3603), RPMI-1640 media (GE, cat #SH30027.01), fetal bovine serum FBS (Thermo Fisher, cat #10099-141), CellTiter-Glo® Luminescent Cell Viability Assay kit (Promega, cat #G7572), PBS (Solarbio, cat #P1020), DMSO (Sigma, cat #D2650). • [Experimental procedure]: When resuscitating Ba/F3 LMNA-NTRK1-G595R cells, the freezing tube was quickly shaken in a 37° C. water bath to melt within 1 minute. The thawed cell suspension was mixed uniformly with RPMI1640 medium containing 10% FBS, centrifuged at 1000 rpm for 5 minutes, and the supernatant discarded. 5 mL of complete medium (RPMI1640 medium with 10% FBS) was taken to resuspend the cell pellets, charged into a cell culture flask with a bottom area of 25 cm^2, and incubated in a cell incubator at 37° C., 95% humidity and 5% CO2. Cells were allowed to passage when the number of cells reached about 10^6 cells/mL. For cell passage, the old cell suspension was directly pipetted evenly, 1/5 of the cell suspension was kept, 4 mL of new complete medium was added, after pipetting evenly, the cell flask was placed in the cell incubator for further culturing. Cell plating was performed when the number of cells reached about 10^6 cells/mL again. For cell plating, 1/5 of the cell suspension was kept for further culturing as in the cell passage method, and the remaining 4/5 of the cell suspension was placed in a 15 mL centrifuge tube, detected for cell viability by Trypan blue exclusion method to ensure that cell viability was above 90%. A cell suspension with a density of 5.56×10^4 viable cells/mL was prepared with complete medium, and 90 μL of such cell suspension was added to a 96-well cell culture plate to obtain the cell density of 5000 viable cells/mL in the cell culture plate. A control group containing no cells, no compound and only complete medium (i.e. culture medium control) and a control group containing no compound but containing cells (i.e. cell control) were set. The cell plate was placed in a cell incubator overnight. The 10 mM compound stock solution in DMSO was first serially diluted with DMSO at a dilution factor of 3.16 times, to obtain 9 concentrations, and the 10th concentration was set as DMSO control without compound. Then, PBS was used to dilute the DMSO solutions of compounds of different concentrations, at a dilution factor of 100 times, so that the DMSO concentration in the compound solution of each concentration was 1%. Finally, 10 μL of each of the above solutions was added to the corresponding cell culture plate, so that the initial compound concentration was 10 μM, with the remaining concentrations being successively diluted at a dilution factor of 3.16 times, and the DMSO content in the cell culture plate was 0.1%. The cell plate was placed in a cell incubator and cultured for 72 hours. For endpoint detection, the CellTiter-Glo reagent was melted, and the cell plate was moved to room temperature to equilibrate for 30 minutes, added with 100 μL of CellTiter-Glo for each well, and shaken on an orbital shaker for 5 minutes to fully lyse the cells. The plate was kept at room temperature for 20 minutes to stabilize the luminescence signal, and the luminescence value of each well was scanned with a multi-functional microplate reader at full wavelength. • [Test samples] […]
On the technique in general: In ATP-based viability assays light output follows the ATP content of the culture.

One may read the pIC50 as the IC50 on a negative log10 scale, so that one unit is a factor of ten. A low value points to a large IC50.

Molecules are shown by their SMILES. pIC50: −log10 of the molar value.

Compound `Cn1ncc2cc(Oc3ccc(NC(=O)c4ccc(C(F)(F)F)n(-c5ccc(F)cc5)c4=O)cc3F)c(-c3cn[nH]c3)cc21` [Example 1, N-(3-fluoro-4-(1-methyl-6-(1H-pyrazol-4-yl)-1H-indazol-5-yloxy)phenyl)-1-(4-fluorophenyl)-6-trifluoromethyl-2-oxo-1,2-dihydmpyridine-3-carboxamide monomethanesulfonate] gave a pIC50 of 5.84. The value for `Cn1ncc2cc(Oc3ccc(NC(=O)c4ccc(C5CC5)n(-c5ccc(F)cc5)c4=O)cc3F)c(-c3cn[nH]c3)cc21` [Example 2, N-(3-fluoro-4-(1-methyl-6-(1H-pyrazol-4-yl)-1H-indazol-5-yloxy)phenyl)-1-(4-fluorophenyl)-6-cyclopropyl-2-oxo-1,2-dihydmpyridine-3-carboxamide] was 6.12; that for `CCn1ncc2cc(Oc3ccc(NC(=O)c4ccc(C)n(-c5ccc(F)cc5)c4=O)cc3F)c(-c3cn[nH]c3)cc21` [Example 3, N-(3-fluoro-4-(1-ethyl-6-(1H-pyrazol-4-yl)-1H-indazol-5-yloxy)phenyl)-1-(4-fluorophenyl)-6-methyl-2-oxo-1,2-dihydmpyridine-3-carboxamide] was 5.50; that for `Cc1ccc(C(=O)Nc2ccc(Oc3cc4cnn(C(C)C)c4cc3-c3cn[nH]c3)c(F)c2)c(=O)n1-c1ccc(F)cc1` [Example 4, N-(3-fluoro-4-(1-isopropyl-6-(1H-pyrazol-4-yl)-1H-indazol-5-yloxy)phenyl)-1-(4-fluorophenyl)-6-methyl-2-oxo-1,2-dihydmpyridine-3-carboxamide] was 5.33. In turn, `CCc1ccc(C(=O)Nc2ccc(Oc3cc4cnn(C)c4cc3-c3cn[nH]c3)c(F)c2)c(=O)n1-c1ccc(F)cc1` [Example 5, N-(3-fluoro-4-(1-methyl-6-(1H-pyrazol-4-yl)-1H-indazol-5-yloxy)phenyl)-1-(4-fluorophenyl)-6-ethyl-2-oxo-1,2-dihydropyridine-3-carboxamide] had a pIC50 of 6.10. Against the preceding compound, the pIC50 is 0.77 log units higher.

`CC(C)c1ccc(C(=O)Nc2ccc(Oc3cc4cnn(C)c4cc3-c3cn[nH]c3)c(F)c2)c(=O)n1-c1ccc(F)cc1` [Example 6, N-(3-fluoro-4-(1-methyl-6-(1H-pyrazol-4-yl)-1H-indazol-5-yloxy)phenyl)-1-(4-fluorophenyl)-6-isopropyl-2-oxo-1,2-dihydropyridine-3-carboxamide] showed a pIC50 of 6.13. As for `O=C(Nc1cnn2ccc(N3CCC[C@@H]3c3cc(F)ccc3F)nc12)N1CC[C@H](O)C1` [LOXO-101, Larotrectinib, reference compound], the pIC50 is 5.44.

Consider `Cc1ccc(C(=O)Nc2ccc(Oc3cc4cnn(C)c4cc3-c3cn[nH]c3)c(F)c2)c(=O)n1-c1ccc(F)cc1` [Merestinib, reference compound], for which the pIC50 is 5.99. Compared with the last compound, the pIC50 is 0.55 log units higher.

The record behind these values is patent publication US11952364B2, “TRK inhibitors useful as anticancer drugs” (TYLIGAND BIOSCIENCE (SHANGHAI) LIMITED, priority 2018, dated 2024).
